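Each compound was tested at five concentrations against cells in 96-well plates for 48 hours. Abbreviation: GI50, concentration required for 50% inhibition of growth.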 The source made the active and inactive calls. Rule as the data show it: active = GI50 up to about 1.1 µM and inactive = higher.
Columns and labels:
Assay in all cases: NCI tumour cell line growth inhibition, 48 h
COLO 205 = system: COLO 205
NCI-H460 = system: NCI-H460
TK-10 = system: TK-10
HT-29 = system: HT-29
HCC 2998 = system: HCC 2998
SK-MEL-2 = system: SK-MEL-2
SNB-75 = system: SNB-75
SF-268 = system: SF-268
SW-620 = system: SW-620
OVCAR-8 = system: OVCAR-8
786-0 = system: 786-0
UACC-257 = system: UACC-257
MDA-MB-231 = system: MDA-MB-231
OVCAR-4 = system: OVCAR-4
PC-3 = system: PC-3
OVCAR-3 = system: OVCAR-3
CCRF-CEM = system: CCRF-CEM
OVCAR-5 = system: OVCAR-5
NCI-H23 = system: NCI-H23
MOLT-4 = system: MOLT-4
CAKI-1 = system: CAKI-1
BT-549 = system: BT-549
Hs-578T = system: Hs-578T
T47D = system: T47D
SK-OV-3 = system: SK-OV-3
SK-MEL-5 = system: SK-MEL-5
EKVX = system: EKVX
MDA-MB-435 = system: MDA-MB-435
SNB-19 = system: SNB-19
Malme-3M = system: Malme-3M
K562 = system: K562
U-251 = system: U-251
HCT-15 = system: HCT-15
UO-31 = system: UO-31
LOX IMVI = system: LOX IMVI
MCF7 = system: MCF7
SN12C = system: SN12C
NCI-H226 = system: NCI-H226
HCT-116 = system: HCT-116
NCI-H522 = system: NCI-H522
A498 = system: A498
DU-145 = system: DU-145
RPMI-8226 = system: RPMI-8226
SR = system: SR
SK-MEL-28 = system: SK-MEL-28
RXF 393 = system: RXF 393
MDA-N = system: MDA-N
KM12 = system: KM12
NCI/ADR-RES = system: NCI/ADR-RES
SF-539 = system: SF-539
M14 = system: M14
UACC-62 = system: UACC-62
A549 = system: A549
HL-60 = system: HL-60
HOP-62 = system: HOP-62
IGROV-1 = system: IGROV-1
SF-295 = system: SF-295
ACHN = system: ACHN

How did the GI50 (COLO 205) turn out when `CSC1=NN(c2ccccc2)C(=O)C1=C(SC)SC` was run?
Its GI50 is 13.2 µM (inactive).

What about the GI50 (NCI-H460) of the same molecule?
Its GI50 is 14.2 µM (inactive).

What about the GI50 (TK-10) of the same molecule?
Its GI50 is 19.5 µM (inactive).

What about the GI50 (HT-29) of the same molecule?
The GI50 was 19.1 µM (inactive).

What about the GI50 (HCC 2998) of the same molecule?
Its GI50 is 25.6 µM (inactive).

And the GI50 (SK-MEL-2)?
The GI50 was 22.8 µM (inactive).

And the GI50 (SNB-75)?
Its GI50 is 27.4 µM (inactive).

What about the GI50 (SF-268) of the same molecule?
The GI50 was 26.1 µM (inactive).

And the GI50 (SW-620)?
Its GI50 is 33.5 µM (inactive).

What about the GI50 (OVCAR-8) of the same molecule?
Its GI50 is 21.5 µM (inactive).

And the GI50 (786-0)?
Its GI50 is 24.2 µM (inactive).

What about the GI50 (UACC-257) of the same molecule?
The GI50 was 16 µM (inactive).

And the GI50 (MDA-MB-231)?
The GI50 was 14.3 µM (inactive).

And the GI50 (OVCAR-4)?
Its GI50 is 19.4 µM (inactive).

What about the GI50 (PC-3) of the same molecule?
The GI50 was 15.1 µM (inactive).

And the GI50 (OVCAR-3)?
The GI50 was 42.6 µM (inactive).

What about the GI50 (CCRF-CEM) of the same molecule?
The GI50 was 14.2 µM (inactive).

And the GI50 (OVCAR-5)?
Its GI50 is 31.6 µM (inactive).

What about the GI50 (NCI-H23) of the same molecule?
The GI50 was 19.1 µM (inactive).

What about the GI50 (MOLT-4) of the same molecule?
The GI50 was 26 µM (inactive).

And the GI50 (CAKI-1)?
Its GI50 is 20 µM (inactive).

What about the GI50 (BT-549) of the same molecule?
Its GI50 is 27.4 µM (inactive).

What about the GI50 (Hs-578T) of the same molecule?
Its GI50 is 18.1 µM (inactive).

And the GI50 (T47D)?
The GI50 was 18.2 µM (inactive).

And the GI50 (SK-OV-3)?
The GI50 was 31.1 µM (inactive).

What about the GI50 (SK-MEL-5) of the same molecule?
Its GI50 is 16.3 µM (inactive).

What about the GI50 (EKVX) of the same molecule?
Its GI50 is 27.7 µM (inactive).

What about the GI50 (MDA-MB-435) of the same molecule?
The GI50 was 31.9 µM (inactive).

What about the GI50 (SNB-19) of the same molecule?
Its GI50 is 23.2 µM (inactive).

And the GI50 (Malme-3M)?
Its GI50 is 11.2 µM (inactive).

What about the GI50 (K562) of the same molecule?
Its GI50 is 20.1 µM (inactive).

What about the GI50 (U-251) of the same molecule?
The GI50 was 22.2 µM (inactive).

And the GI50 (HCT-15)?
Its GI50 is 20.1 µM.

What about the GI50 (UO-31) of the same molecule?
The GI50 was 12.1 µM (inactive).

What about the GI50 (LOX IMVI) of the same molecule?
Its GI50 is 20.2 µM (inactive).

What about the GI50 (MCF7) of the same molecule?
Its GI50 is 19.2 µM (inactive).

And the GI50 (SN12C)?
The GI50 was 28.4 µM (inactive).

And the GI50 (NCI-H226)?
The GI50 was 16.1 µM (inactive).

And the GI50 (HCT-116)?
The GI50 was 16.7 µM (inactive).

And the GI50 (NCI-H522)?
The GI50 was 2.44 µM (inactive).

What about the GI50 (A498) of the same molecule?
The GI50 was 13.3 µM (inactive).

What about the GI50 (DU-145) of the same molecule?
The GI50 was 29.9 µM (inactive).

What about the GI50 (RPMI-8226) of the same molecule?
The GI50 was 14.3 µM (inactive).

What about the GI50 (SR) of the same molecule?
The GI50 was 24 µM (inactive).

What about the GI50 (SK-MEL-28) of the same molecule?
Its GI50 is 30.5 µM (inactive).

What about the GI50 (RXF 393) of the same molecule?
The GI50 was 13.9 µM (inactive).

What about the GI50 (MDA-N) of the same molecule?
The GI50 was 30.7 µM (inactive).

What about the GI50 (KM12) of the same molecule?
The GI50 was 31.6 µM (inactive).

What about the GI50 (NCI/ADR-RES) of the same molecule?
Its GI50 is 18.4 µM (inactive).

What about the GI50 (SF-539) of the same molecule?
The GI50 was 21.7 µM (inactive).

What about the GI50 (M14) of the same molecule?
Its GI50 is 37.2 µM (inactive).

And the GI50 (UACC-62)?
The GI50 was 21.2 µM (inactive).

What about the GI50 (A549) of the same molecule?
The GI50 was 20 µM (inactive).

What about the GI50 (HL-60) of the same molecule?
Its GI50 is 15.9 µM (inactive).

`O=C(Nc1ccn(C2CCC(CO)O2)c(=O)n1)c1ccccc1` (centres undefined) was tested. Which GI50 (COLO 205) did it give?
The GI50 was > 100 µM (inactive).

What about the GI50 (TK-10) of the same molecule?
The GI50 was > 100 µM (inactive).

What about the GI50 (HT-29) of the same molecule?
The GI50 was > 100 µM (inactive).

And the GI50 (HCC 2998)?
Its GI50 is > 100 µM (inactive).

What about the GI50 (SK-MEL-2) of the same molecule?
The GI50 was > 100 µM (inactive).

And the GI50 (SNB-75)?
Its GI50 is 79.6 µM (inactive).

What about the GI50 (SF-268) of the same molecule?
Its GI50 is > 100 µM (inactive).

What about the GI50 (SW-620) of the same molecule?
Its GI50 is > 100 µM (inactive).

What about the GI50 (OVCAR-8) of the same molecule?
Its GI50 is > 100 µM (inactive).

What about the GI50 (786-0) of the same molecule?
Its GI50 is > 100 µM (inactive).

And the GI50 (UACC-257)?
The GI50 was > 100 µM (inactive).

What about the GI50 (MDA-MB-231) of the same molecule?
The GI50 was > 100 µM (inactive).

And the GI50 (PC-3)?
The GI50 was > 100 µM (inactive).

And the GI50 (HOP-62)?
Its GI50 is > 100 µM (inactive).

What about the GI50 (IGROV-1) of the same molecule?
The GI50 was > 100 µM (inactive).

And the GI50 (CCRF-CEM)?
Its GI50 is 34.1 µM (inactive).

What about the GI50 (OVCAR-5) of the same molecule?
Its GI50 is > 100 µM (inactive).

And the GI50 (NCI-H23)?
Its GI50 is > 100 µM (inactive).

What about the GI50 (MOLT-4) of the same molecule?
Its GI50 is > 100 µM (inactive).

What about the GI50 (CAKI-1) of the same molecule?
The GI50 was > 100 µM (inactive).

What about the GI50 (BT-549) of the same molecule?
Its GI50 is > 100 µM (inactive).

What about the GI50 (Hs-578T) of the same molecule?
Its GI50 is > 100 µM (inactive).

And the GI50 (SF-295)?
The GI50 was > 100 µM (inactive).

And the GI50 (T47D)?
The GI50 was > 100 µM (inactive).

And the GI50 (SK-OV-3)?
Its GI50 is > 100 µM (inactive).

What about the GI50 (SK-MEL-5) of the same molecule?
The GI50 was > 100 µM (inactive).

What about the GI50 (EKVX) of the same molecule?
The GI50 was > 100 µM (inactive).

And the GI50 (MDA-MB-435)?
Its GI50 is > 100 µM (inactive).

What about the GI50 (SNB-19) of the same molecule?
The GI50 was > 100 µM (inactive).

What about the GI50 (Malme-3M) of the same molecule?
Its GI50 is > 100 µM (inactive).

What about the GI50 (K562) of the same molecule?
The GI50 was > 100 µM (inactive).

What about the GI50 (U-251) of the same molecule?
The GI50 was > 100 µM (inactive).

And the GI50 (HCT-15)?
Its GI50 is over 100 µM.

What about the GI50 (UO-31) of the same molecule?
The GI50 was > 100 µM (inactive).

What about the GI50 (LOX IMVI) of the same molecule?
The GI50 was > 100 µM (inactive).

And the GI50 (MCF7)?
Its GI50 is > 100 µM (inactive).

And the GI50 (SN12C)?
The GI50 was > 100 µM (inactive).

What about the GI50 (NCI-H226) of the same molecule?
The GI50 was > 100 µM (inactive).

What about the GI50 (HCT-116) of the same molecule?
Its GI50 is > 100 µM (inactive).

What about the GI50 (NCI-H522) of the same molecule?
The GI50 was > 100 µM (inactive).

And the GI50 (A498)?
The GI50 was 50.4 µM (inactive).

And the GI50 (DU-145)?
Its GI50 is > 100 µM (inactive).

What about the GI50 (RPMI-8226) of the same molecule?
The GI50 was > 100 µM (inactive).

What about the GI50 (SR) of the same molecule?
Its GI50 is > 100 µM (inactive).

What about the GI50 (ACHN) of the same molecule?
Its GI50 is > 100 µM (inactive).

What about the GI50 (SK-MEL-28) of the same molecule?
The GI50 was > 100 µM (inactive).

What about the GI50 (RXF 393) of the same molecule?
Its GI50 is > 100 µM (inactive).

What about the GI50 (MDA-N) of the same molecule?
Its GI50 is > 100 µM (inactive).

And the GI50 (KM12)?
The GI50 was > 100 µM (inactive).

And the GI50 (NCI/ADR-RES)?
Its GI50 is > 100 µM (inactive).

And the GI50 (SF-539)?
Its GI50 is > 100 µM (inactive).

And the GI50 (M14)?
Its GI50 is > 100 µM (inactive).

And the GI50 (UACC-62)?
The GI50 was > 100 µM (inactive).

And the GI50 (A549)?
The GI50 was > 100 µM (inactive).

And the GI50 (HL-60)?
The GI50 was > 100 µM (inactive).

From ChEMBL document CHEMBL1201862, “PubChem BioAssay data set” (2004)
